Drawing on PubChem BioAssay (NCI), this text covers TGI and GI50 for 22 compounds.

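Dose response: 5 concentrations. Exposure: 48 h. Format: 96-well plates. Endpoint: linear interpolation; highest concentration if not reached. GI50 is the concentration that inhibits growth by half. At the TGI there is no net growth.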

One assay concerns TK-10 renal. Briefly: inhibition of tumour cell growth, NCI panel, 48 h.
The compound `O=c1n(-c2ccccc2)c(=O)n2n1C1C=CC2C2C(C1)C2(Cl)Cl` (stereo unspecified) yielded a TGI of more than 100 µM.
Regarding `O=c1[nH]c(=O)n(C2CC(O)C(CO)O2)cc1CO` (stereo unspecified), the GI50 is more than 100 µM and the TGI is more than 100 µM.
On to `Cc1c(Cl)cccc1N1C(=O)C(Cl)=C(Cl)C1=O`, for which the TGI is more than 100 µM.
As for `COc1cccc(/C=N/[N-]C(=O)c2ccncc2)c1[O-].[Cu+2].[OH3+]`, the GI50 is more than 100 µM and the TGI is more than 100 µM.
Turning to `COc1ccc(C(O)c2nccn2C)c(OC)c1` (stereo unspecified), the TGI was more than 100 µM.
Consider `CS(=O)(=O)CCCn1c(=O)c(Oc2ccc(F)cc2F)cc2cnc(NC3CCOCC3)nc21`, for which the GI50 is more than 25 µM and the TGI was more than 25 µM.
In turn, `CCc1c(OC(C)=O)c2c(NC3OC(COC(C)=O)C(OC(C)=O)C(OC(C)=O)C3OC(C)=O)nc(OC)nc2oc1=O` (stereo unspecified) yielded a TGI of more than 100 µM.
`Cc1cn2c(/C=C3\C(=O)Nc4ccc(O)cc43)c(-c3ccc(Cl)cc3)nc2s1`: the GI50 was 18.7 µM and the TGI amounted to 52.2 µM.
For `O=[N+]([O-])c1ccc(-n2nnc(C3=NCCN3)c2-c2ccc(Cl)cc2)cc1`, the TGI was more than 100 µM.
In turn, `CCOc1ccc(N2C(=O)/C(=C/c3ccc(N(CCC#N)CCC#N)cc3)N=C2c2cc([N+](=O)[O-])ccc2Cl)cc1` returned a TGI of more than 100 µM.
`COc1ccc(-c2cc(-c3ccccc3)c(C#N)c(=O)n2C2OC(CO)C(O)C(O)C2O)cc1` (stereo unspecified) gave a TGI of more than 100 µM.
The same measure, in the same setting: with `CCOC(=O)C1(c2ccccc2)CCC(=O)CC1` the figure was more than 100 µM.
Turning to `CCCCCCNC(=O)c1nc(-c2ccccc2)oc1Cc1ccc(OP(=O)(O)O)cc1`, the GI50 was 16.9 µM and the TGI was determined as 32.9 µM.
In the case of `CCCn1c(N)c(C(=O)N/N=C(/C)c2cc3cccc(OC)c3o2)sc1=S`, the GI50 is 28.8 µM and the TGI was more than 100 µM.
For the compound `O=C(O)CSc1n[nH]c(-c2ccccc2)n1`, the TGI is more than 100 µM.
For the compound `O=c1cc2oc3cc(O)c(O)cc3c(-c3ccccc3O)c-2cc1O`, the GI50 is 21.9 µM and the TGI was more than 100 µM.
On the same counts, the results for `CCCCCCC[CH2][Sn]1([CH2]CCCCCCC)[O]C(=O)c2cccnc2[S]1` are more than 100 µM and more than 100 µM.
`COc1ccc(/C(=N\NC(=O)C(N)=O)C(c2ccc(OC)cc2)C2(O)C(=O)Nc3c(Cl)cccc32)cc1` (stereo unspecified): the TGI is more than 100 µM.
Compound `Cc1ccc(S(=O)(=O)N/N=C/c2oc(-c3ccncc3)c(-c3ccncc3)c2[N+](=O)[O-])cc1` had a TGI of more than 100 µM.
On to `CCc1cccc(C)c1NC(=O)C(=O)Cc1nc2ccccc2o1`, for which the TGI is more than 100 µM.
In turn, `O=C1c2ccccc2C2(O)c3cc4ccccc4cc3OC12O` (stereo unspecified) yielded a TGI of more than 100 µM.
On to `CN(C)c1c([O-])c(=[N+](C)C)c1=O`, for which the TGI was more than 100 µM.

A further assay deals with HOP-62 NSCLC. Put plainly: inhibition of tumour cell growth, NCI panel, 48 h.
The compound `O=c1n(-c2ccccc2)c(=O)n2n1C1C=CC2C2C(C1)C2(Cl)Cl` (stereo unspecified) had a TGI of more than 100 µM.
`O=c1[nH]c(=O)n(C2CC(O)C(CO)O2)cc1CO` (stereo unspecified): the GI50 is more than 100 µM and the TGI was more than 100 µM.
The compound `Cc1c(Cl)cccc1N1C(=O)C(Cl)=C(Cl)C1=O` returned a TGI of more than 100 µM.
As to `COc1cccc(/C=N/[N-]C(=O)c2ccncc2)c1[O-].[Cu+2].[OH3+]`, the GI50 is 15.7 µM and the TGI was found to be 86.4 µM.
`COc1ccc(C(O)c2nccn2C)c(OC)c1` (stereo unspecified) displayed a TGI of more than 100 µM.
With `CS(=O)(=O)CCCn1c(=O)c(Oc2ccc(F)cc2F)cc2cnc(NC3CCOCC3)nc21`, the GI50 is more than 25 µM and the TGI was more than 25 µM.
With `CCc1c(OC(C)=O)c2c(NC3OC(COC(C)=O)C(OC(C)=O)C(OC(C)=O)C3OC(C)=O)nc(OC)nc2oc1=O` (stereo unspecified), the TGI is more than 100 µM.
With `Cc1cn2c(/C=C3\C(=O)Nc4ccc(O)cc43)c(-c3ccc(Cl)cc3)nc2s1`, the GI50 was 15.3 µM and the TGI was 30.3 µM.
`O=[N+]([O-])c1ccc(-n2nnc(C3=NCCN3)c2-c2ccc(Cl)cc2)cc1` gave a TGI of more than 100 µM.
Turning to `CCOc1ccc(N2C(=O)/C(=C/c3ccc(N(CCC#N)CCC#N)cc3)N=C2c2cc([N+](=O)[O-])ccc2Cl)cc1`, the TGI is more than 100 µM.
The compound `COc1ccc(-c2cc(-c3ccccc3)c(C#N)c(=O)n2C2OC(CO)C(O)C(O)C2O)cc1` (stereo unspecified) came in with a TGI of more than 100 µM.
The compound `CCOC(=O)C1(c2ccccc2)CCC(=O)CC1` yielded a TGI of more than 100 µM.
Take `CCCCCCNC(=O)c1nc(-c2ccccc2)oc1Cc1ccc(OP(=O)(O)O)cc1`: the GI50 was 17.4 µM and the TGI is 32.3 µM.
As to `CCCn1c(N)c(C(=O)N/N=C(/C)c2cc3cccc(OC)c3o2)sc1=S`, the GI50 is 11.8 µM and the TGI worked out at 30 µM.
In the case of `O=C(O)CSc1n[nH]c(-c2ccccc2)n1`, the TGI is more than 100 µM.
Take `O=c1cc2oc3cc(O)c(O)cc3c(-c3ccccc3O)c-2cc1O`: the GI50 was 5.62 µM and the TGI is more than 100 µM.
For `CCCCCCC[CH2][Sn]1([CH2]CCCCCCC)[O]C(=O)c2cccnc2[S]1`, the GI50 is more than 100 µM and the TGI is more than 100 µM.
The compound `COc1ccc(/C(=N\NC(=O)C(N)=O)C(c2ccc(OC)cc2)C2(O)C(=O)Nc3c(Cl)cccc32)cc1` (stereo unspecified) returned a TGI of more than 100 µM.
Regarding `Cc1ccc(S(=O)(=O)N/N=C/c2oc(-c3ccncc3)c(-c3ccncc3)c2[N+](=O)[O-])cc1`, the TGI is more than 100 µM.
Same read-out and setting: with `CCc1cccc(C)c1NC(=O)C(=O)Cc1nc2ccccc2o1` the figure was more than 100 µM.
Still for that read-out and setting: next, `O=C1c2ccccc2C2(O)c3cc4ccccc4cc3OC12O` (stereo unspecified): more than 100 µM.
In the case of `CN(C)c1c([O-])c(=[N+](C)C)c1=O`, the TGI is more than 100 µM.

The test system of a further assay is HCC-2998 colon. Put plainly: inhibition of tumour cell growth, NCI panel, 48 h.
As for `O=c1n(-c2ccccc2)c(=O)n2n1C1C=CC2C2C(C1)C2(Cl)Cl` (stereo unspecified), the TGI is more than 100 µM.
Regarding `O=c1[nH]c(=O)n(C2CC(O)C(CO)O2)cc1CO` (stereo unspecified), the GI50 was more than 100 µM and the TGI is more than 100 µM.
For `Cc1c(Cl)cccc1N1C(=O)C(Cl)=C(Cl)C1=O`, the TGI was more than 100 µM.
In the case of `COc1cccc(/C=N/[N-]C(=O)c2ccncc2)c1[O-].[Cu+2].[OH3+]`, the GI50 was more than 100 µM and the TGI was more than 100 µM.
